Assay results from patent US20260306526A1, “COMBINATION THERAPY FOR BACTERIAL INFECTIONS COMPRISING ZINC-CHELATOR, BETA-LACTAM ANTIBIOTIC AND SERINE BETA-LACTAMASE INHIBITOR” (priority 2023, published 2026).
Where “and” joins values, the source holds several entries; their conditions need not be identical. Identical values can stand only once.

Key:
Type in all cases: cell-based
[1] = test system: Klebsiella pneumoniae ST147; assay: MIC determination, fixed ratio of sBLI to antibiotic (Examples 5-7); settings: Example 7; with MEM and AVI (fixed ratio); NDM-1 and KPC-2; caMHB, 29.4 μM Zn2+
Description: (§1) Antimicrobial susceptibility testing (AST) by broth microdilution (MIC determination) was performed according to The European Committee on Antimicrobial Susceptibility Testing (EUCAST) guidelines (see Reading guide for broth microdilution Version 5.0, 2024: https://www.eucast.org).
(§2) Sterile clear round bottom polystyrene (non-treated) 96-well microplates (Corning 3788) were used for making serial two-fold dilutions of the antibiotic and the sBLI in cation-adjusted Mueller Hinton II broth (caMHB; Thermo Scientific, T3462, containing 29.4 μM Zn^2+), across the columns of the microtiter plate (256-0.06 μg/mL; columns 1-12). The checkerboard plates were all made by keeping the sBLI at a fixed ratio relative to antibiotic (absolute concentrations of each, in μg/mL) to all wells containing sample in each plate. Additionally, a set of samples was included in each test plate, where the zinc chelator was added, at various fixed concentrations, of 16 μg/mL, 8 μg/mL and/or 4 μg/mL (as specified in each Example). All sample wells contained growth medium (caMHB), and inoculated bacteria at a final inoculum between 3-7×10^5 CFU/mL. […]

bacterial strain = assay: MIC checkerboard assays, Examples 2 to 30 overall
Description: Thus, in most of the experiments, a Fractional Inhibitory Concentration Index (FICI) could not be calculated, and the conclusion of synergy was made through visual reading of the bacterial growth in the wells in the combination experiment.
as §1, §2

[2] = test system: Klebsiella pneumoniae K66-45; assay: MIC determination, fixed ratio of sBLI to antibiotic (Examples 2-4); settings: Example 2; with MEM and AVI (fixed ratio); NDM-1; caMHB, 29.4 μM Zn2+
Description: as §1, §2

CN(C[C@H](O)[C@@H](O)[C@H](O)[C@H](O)CO)C(=O)c1ccc(CN(Cc2ccccn2)Cc2ccccn2)nc1 [zinc chelator]
Synergy with the zinc chelator observed at concentration [1]: 16 µg/mL and 8 µg/mL | intrinsic antibiotic effect (bacterial strain): neither the zinc chelator nor the sBLI have intrinsic antibiotic effect | Synergy with the zinc chelator observed at concentration [2]: 16 µg/mL and 8 µg/mL
